Reference: PubChem BioAssay (NCI)
Where “and” joins values, the source holds several entries; their conditions need not be identical. Identical values can stand only once.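 Compound exposure: 48 hours, 5 concentrations, 96-well plates. GI50 is the concentration that inhibits growth by half. TGI: total growth inhibition.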

Tests used:
Assay in all cases: DTP human tumour cell line panel, 48 h
[1] = system: MALME-3M melanoma
[2] = system: COLO 205 colon
[3] = system: NCI-H226 lung
[4] = system: SF-268 CNS
[5] = system: OVCAR-8 ovarian
[6] = system: RPMI-8226 leukemia
[7] = system: MOLT-4 leukemia
[8] = system: UACC-62 melanoma
[9] = system: EKVX NSCLC
[10] = system: LOX IMVI melanoma

SMILES	GI50 [1]	TGI [1]	GI50 [2]	TGI [2]	GI50 [3]	TGI [3]	GI50 [4]	TGI [4]	GI50 [5]	TGI [5]	GI50 [6]	TGI [6]	GI50 [7]	TGI [7]	GI50 [8]	TGI [8]	TGI [9]	TGI [10]	GI50 [9]	GI50 [10]
Cc1ccn2c(-c3csc(Nc4cccc(O)c4)n3)c(C)nc2c1	0.444 µM	25 µM	11.8 µM	26.3 µM	14.1 µM	57.4 µM	0.785 µM	42.6 µM	0.611 µM	44.9 µM	0.422 µM	5.02 µM	0.591 µM	27.9 µM	0.712 µM	19.2 µM	–	–	–	–
O=c1c2cc(Br)ccc2[nH]c(=S)n1-c1ccccc1	–	> 100 µM	–	> 100 µM	–	> 100 µM	–	> 100 µM	–	> 100 µM	–	> 100 µM	–	–	–	> 100 µM	> 100 µM	> 100 µM	–	–
CC(=O)NC1CCCN(O)C(=O)/C=C(/C)CCOC(=O)C(NC(C)=O)CCCN(O)C(=O)/C=C(/C)CCOC(=O)C(NC(C)=O)CCCN(O)C(=O)/C=C(/C)CCOC1=O.[Fe] (stereo not given)	–	–	> 100 µM	> 100 µM	–	–	> 100 µM	> 100 µM	> 100 µM	> 100 µM	> 100 µM	> 100 µM	> 100 µM	> 100 µM	> 100 µM	> 100 µM	> 100 µM	> 100 µM	> 100 µM	> 100 µM
O=NNc1ccc(Sc2ccc3ccccc3c2)cn1	–	35.6 µM	–	> 100 µM	–	> 100 µM	–	> 100 µM	–	> 100 µM	–	–	–	> 100 µM	–	> 100 µM	> 100 µM	–	–	–
NC(Cc1ccc(O)cc1)C(=O)N/N=C/c1ccc(N(CCCl)CCCl)cc1 (stereo not given)	–	–	44.5 µM	> 100 µM	3.01 µM	31.6 µM	2.81 µM	87.8 µM	5.58 µM	55 µM	10.1 µM	> 100 µM	0.454 µM	> 100 µM	2.69 µM	27 µM	> 100 µM	68.4 µM	24.2 µM	5.73 µM
CC(=O)Nc1cc(C(c2ccccc2)c2ccccc2)cc(C(c2ccccc2)c2ccccc2)c1C	9.59 µM	> 100 µM	7.36 µM	> 100 µM	6.8 µM	> 100 µM	8.2 µM	> 100 µM	> 100 µM	> 100 µM	1.88 µM	7.67 µM	–	–	5.86 µM	> 100 µM	> 100 µM	> 100 µM	3.23 µM	7.98 µM
CC(C)(C)C1CCC(CI)(N=[N+]=[N-])CC1 (stereo not given)	–	> 100 µM	–	> 100 µM	–	> 100 µM	–	> 100 µM	–	> 100 µM	–	> 100 µM	–	> 100 µM	–	> 100 µM	> 100 µM	–	–	–
O=C1/C(=C\c2ccc([N+](=O)[O-])cc2)CS(=O)(=O)C/C1=C/c1ccc([N+](=O)[O-])cc1	0.32 µM	2.12 µM	0.252 µM	0.983 µM and 0.645 µM	0.163 µM	–	0.359 µM	10.5 µM	0.0764 µM	0.93 µM	–	0.547 µM	–	–	1.84 µM	0.519 µM and 4.12 µM	4.95 µM	–	0.348 µM	0.0309 µM
O=C1C=CC(=O)c2c1cc1ccccc1c2O	–	17.2 µM	–	6.15 µM	–	37.6 µM	–	29.2 µM	–	8.96 µM	–	> 26 µM	–	–	–	20 µM	22.8 µM	9.06 µM	–	–
Cc1ccc(C2NC(=S)N3C(c4ccc(C)cc4)NC(=S)N23)cc1 (stereo not given)	12.4 µM	28.1 µM	6.07 µM	18.5 µM	6.85 µM	29 µM	7.78 µM	22.1 µM	7.36 µM	25.1 µM	–	–	5.82 µM	18.9 µM	1.88 µM	11.7 µM	25.3 µM	22.1 µM	7.93 µM	8.84 µM
COc1ccc(C2c3cc4c(c(OC)c3CC3OCC(=O)C32)OCO4)cc1OC (stereo not given)	–	–	< 0.01 µM	0.074 µM and 0.0135 µM	< 0.01 µM	> 100 µM	< 0.01 µM	> 100 µM	< 0.01 µM	46.9 µM	–	–	–	–	< 0.01 µM	> 100 µM	> 100 µM	–	< 0.01 µM	–
Cc1ccc(-n2nnc3c(sc4ccccc43)c2=O)cc1	8.4 µM	> 100 µM	6.23 µM	> 100 µM	9.55 µM	> 100 µM	4.62 µM	71 µM	6.1 µM	> 100 µM	24 µM	> 100 µM	> 100 µM	> 100 µM	51.7 µM	> 100 µM	–	> 100 µM	–	4.09 µM
CS(=O)/C(C#N)=C\C=C\c1cccc(Cl)c1 (stereo not given)	–	–	2.25 µM	4.44 µM	5.02 µM	20.3 µM	2.46 µM	14.5 µM	3.78 µM	17.9 µM	2.44 µM	12 µM	2.54 µM	16.4 µM	1.18 µM	3.54 µM	16.7 µM	2.73 µM	3.66 µM	1.31 µM
C/C(=C\CCc1ccsc1)CC/C=C(\C)CCCN1CCN(CCO)CC1	1.87 µM	3.73 µM	1.89 µM	3.95 µM	5.68 µM	24.3 µM	5.44 µM	19.8 µM	4.84 µM	18.4 µM	1.92 µM	4.57 µM	2.48 µM	6.29 µM	1.73 µM	3.75 µM	–	3.37 µM	–	1.8 µM
O=c1[nH]cc(CO)c(=O)[nH]1	> 100 µM	> 100 µM	> 100 µM	> 100 µM	–	–	> 100 µM	> 100 µM	> 100 µM	> 100 µM	–	–	> 100 µM	> 100 µM	> 100 µM	> 100 µM	–	> 100 µM	–	> 100 µM
COC(=O)[C@H]1CC(=O)C=C2CCCC21 (stereo not given in full)	–	> 100 µM	–	> 100 µM	–	–	–	> 100 µM	–	> 100 µM	–	> 100 µM	–	> 100 µM	–	> 100 µM	> 100 µM	> 100 µM	–	–
